From PubChem BioAssay AID1963828 (Molecular Pharmacology Branch, DTP, NCI, 2024)

System: 991263-137-R1-J2-PDC complex spheroid viability
Assay: Anticancer human tumor 991263-137-R1-J2-PDC patient-derived colon adenocarcinoma cell line growth inhibition [POLQ]
Settings: for IC50: curve of first compound; for viability, T/C: stronger effect = lower value
Method in brief: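 Growth inhibition in 3D: complex spheroids (tumor PDC, HUVEC, MSC) treated with POLQ inhibitor combinations; where Cmax unknown, highest tested concentration 10 microM, except SN-38 at 1 microM.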

[1] = second compound 0.0316 µM, first compound 0.0316 µM
[2] = second compound 0.0316 µM, first compound 0.1 µM
[3] = second compound 0.0316 µM, first compound 0.316 µM
[4] = second compound 0.0316 µM, first compound 1 µM
[5] = second compound 0.0316 µM, first compound 3.16 µM
[6] = second compound 0.0316 µM, first compound 10 µM
[7] = second compound 0.1 µM, first compound 0.0316 µM
[8] = second compound 0.1 µM, first compound 0.1 µM
[9] = second compound 0.1 µM, first compound 0.316 µM
[10] = second compound 0.1 µM, first compound 1 µM
[11] = second compound 0.1 µM, first compound 3.16 µM
[12] = second compound 0.1 µM, first compound 10 µM
[13] = second compound 0.316 µM, first compound 0.0316 µM
[14] = second compound 0.316 µM, first compound 0.1 µM
[15] = second compound 0.316 µM, first compound 0.316 µM
[16] = second compound 0.316 µM, first compound 1 µM
[17] = second compound 0.316 µM, first compound 3.16 µM
[18] = second compound 0.316 µM, first compound 10 µM
[19] = second compound 1 µM, first compound 0.0316 µM
[20] = second compound 1 µM, first compound 0.1 µM
[21] = second compound 1 µM, first compound 0.316 µM
[22] = second compound 1 µM, first compound 1 µM
[23] = second compound 1 µM, first compound 3.16 µM
[24] = second compound 1 µM, first compound 10 µM
[25] = second compound 3.16 µM, first compound 0.0316 µM
[26] = second compound 3.16 µM, first compound 0.1 µM
[27] = second compound 3.16 µM, first compound 0.316 µM
[28] = second compound 3.16 µM, first compound 1 µM
[29] = second compound 3.16 µM, first compound 3.16 µM
[30] = second compound 3.16 µM, first compound 10 µM
[31] = second compound 10 µM, first compound 0.0316 µM
[32] = second compound 10 µM, first compound 0.1 µM
[33] = second compound 10 µM, first compound 0.316 µM
[34] = second compound 10 µM, first compound 1 µM
[35] = second compound 10 µM, first compound 3.16 µM
[36] = second compound 10 µM, first compound 10 µM
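Note: spheroids exposed to compounds for 7 days before readout.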
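Throughout, for viability, T/C: 100% = DMSO vehicle control viability.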

SMILES: O=C(Nc1ccc(O)c(NS(=O)(=O)c2ccc(F)cc2)c1)c1ccc(-c2ccccc2)cc1 + Cc1cccc(N(C)C(=O)C2C(O)CCN2c2nc(C)cc(C(F)(F)F)c2C#N)c1
- IC50 (second compound 0.0316 µM): > 10 µM
- IC50 (second compound 0.1 µM): > 10 µM
- IC50 (second compound 0.316 µM): > 10 µM
- IC50 (second compound 1 µM): > 10 µM
- IC50 (second compound 3.16 µM): > 10 µM
- IC50 (second compound 10 µM): > 10 µM
- viability, T/C [1]: 103%
- viability, T/C [2]: 99.6%
- viability, T/C [3]: 90.9%
- viability, T/C [4]: 101%
- viability, T/C [5]: 87.2%
- viability, T/C [6]: 92%
- viability, T/C [7]: 96.8%
- viability, T/C [8]: 95.7%
- viability, T/C [9]: 113%
- viability, T/C [10]: 94.8%
- viability, T/C [11]: 99%
- viability, T/C [12]: 91%
- viability, T/C [13]: 98.3%
- viability, T/C [14]: 97.5%
- viability, T/C [15]: 103%
- viability, T/C [16]: 80.9%
- viability, T/C [17]: 99.6%
- viability, T/C [18]: 86.5%
- viability, T/C [19]: 99.2%
- viability, T/C [20]: 99%
- viability, T/C [21]: 106%
- viability, T/C [22]: 94.2%
- viability, T/C [23]: 103%
- viability, T/C [24]: 80.1%
- viability, T/C [25]: 96.4%
- viability, T/C [26]: 96.2%
- viability, T/C [27]: 95.2%
- viability, T/C [28]: 109%
- viability, T/C [29]: 105%
- viability, T/C [30]: 85.8%
- viability, T/C [31]: 93.7%
- viability, T/C [32]: 95.9%
- viability, T/C [33]: 90.5%
- viability, T/C [34]: 96.8%
- viability, T/C [35]: 105%
- viability, T/C [36]: 87.5%

SMILES: COc1ccc([C@@H](O)c2cc(-c3ncnc4cc(N5CCOCC5)ccc34)c(F)cc2Cl)nn1 + Cc1cccc(N(C)C(=O)C2C(O)CCN2c2nc(C)cc(C(F)(F)F)c2C#N)c1
- IC50 (second compound 0.0316 µM): 2.6 µM
- IC50 (second compound 0.1 µM): 5.78 µM
- IC50 (second compound 0.316 µM): 5.97 µM
- IC50 (second compound 1 µM): 6.2 µM
- IC50 (second compound 3.16 µM): 5.68 µM
- IC50 (second compound 10 µM): 3.76 µM
- viability, T/C [1]: 101%
- viability, T/C [2]: 88.1%
- viability, T/C [3]: 93.3%
- viability, T/C [4]: 110%
- viability, T/C [5]: 40.1%
- viability, T/C [6]: 27.1%
- viability, T/C [7]: 116%
- viability, T/C [8]: 104%
- viability, T/C [9]: 98.1%
- viability, T/C [10]: 88%
- viability, T/C [11]: 76.4%
- viability, T/C [12]: 29.3%
- viability, T/C [13]: 103%
- viability, T/C [14]: 103%
- viability, T/C [15]: 84.9%
- viability, T/C [16]: 87.5%
- viability, T/C [17]: 68.9%
- viability, T/C [18]: 34.9%
- viability, T/C [19]: 99.5%
- viability, T/C [20]: 114%
- viability, T/C [21]: 75.2%
- viability, T/C [22]: 89%
- viability, T/C [23]: 76.3%
- viability, T/C [24]: 33.1%
- viability, T/C [25]: 97.5%
- viability, T/C [26]: 92.8%
- viability, T/C [27]: 77.9%
- viability, T/C [28]: 79.5%
- viability, T/C [29]: 75.5%
- viability, T/C [30]: 29.4%
- viability, T/C [31]: 85.3%
- viability, T/C [32]: 117%
- viability, T/C [33]: 86%
- viability, T/C [34]: 90.5%
- viability, T/C [35]: 53.2%
- viability, T/C [36]: 30%
